Source: PMC4447944 (The Journal of Biological Chemistry, 2015)

Experiments:
hABL1(F317I) = target: T1, hABL1(F317I) (Homo sapiens, UniProt P00519, F317I); assay: KINOMEscan; format: binding
T1 construct: purchased DiscoverX (KINOMEscan platform)

hABL1(H396P) = target: T2, hABL1(H396P) (Homo sapiens, UniProt P00519, H396P); assay: KINOMEscan; format: binding
T2 construct: purchased DiscoverX (KINOMEscan platform)

hABL1(pH396P) = target: T3, hABL1(pH396P) (Homo sapiens, UniProt P00519, H396P); assay: KINOMEscan; format: binding
T3 construct: purchased DiscoverX (KINOMEscan platform)

hABL2 = target: T4, hABL2 (Homo sapiens, UniProt P42684); assay: KINOMEscan; format: binding
T4 construct: purchased DiscoverX (KINOMEscan platform)

hACVR1B = target: T5, hACVR1B (Homo sapiens, UniProt P36896); assay: KINOMEscan; format: binding
T5 construct: purchased DiscoverX (KINOMEscan platform)
T5 sequence (P36896 24-505): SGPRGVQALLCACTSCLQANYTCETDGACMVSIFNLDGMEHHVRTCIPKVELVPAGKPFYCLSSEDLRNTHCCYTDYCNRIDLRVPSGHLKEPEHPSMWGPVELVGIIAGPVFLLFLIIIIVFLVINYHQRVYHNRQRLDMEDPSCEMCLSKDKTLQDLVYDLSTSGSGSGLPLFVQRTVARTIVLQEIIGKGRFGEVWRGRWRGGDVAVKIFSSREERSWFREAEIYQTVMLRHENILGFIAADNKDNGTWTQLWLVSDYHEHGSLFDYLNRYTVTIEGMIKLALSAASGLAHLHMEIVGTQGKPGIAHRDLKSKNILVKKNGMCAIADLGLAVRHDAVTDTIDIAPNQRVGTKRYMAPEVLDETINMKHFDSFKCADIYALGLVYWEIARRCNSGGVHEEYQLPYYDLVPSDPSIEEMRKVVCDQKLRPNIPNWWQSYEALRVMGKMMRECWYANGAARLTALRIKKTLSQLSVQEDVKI

hACVRL1 = target: T6, hACVRL1 (Homo sapiens, UniProt P37023); assay: KINOMEscan; format: binding
T6 construct: purchased DiscoverX (KINOMEscan platform)
T6 sequence (P37023 22-503): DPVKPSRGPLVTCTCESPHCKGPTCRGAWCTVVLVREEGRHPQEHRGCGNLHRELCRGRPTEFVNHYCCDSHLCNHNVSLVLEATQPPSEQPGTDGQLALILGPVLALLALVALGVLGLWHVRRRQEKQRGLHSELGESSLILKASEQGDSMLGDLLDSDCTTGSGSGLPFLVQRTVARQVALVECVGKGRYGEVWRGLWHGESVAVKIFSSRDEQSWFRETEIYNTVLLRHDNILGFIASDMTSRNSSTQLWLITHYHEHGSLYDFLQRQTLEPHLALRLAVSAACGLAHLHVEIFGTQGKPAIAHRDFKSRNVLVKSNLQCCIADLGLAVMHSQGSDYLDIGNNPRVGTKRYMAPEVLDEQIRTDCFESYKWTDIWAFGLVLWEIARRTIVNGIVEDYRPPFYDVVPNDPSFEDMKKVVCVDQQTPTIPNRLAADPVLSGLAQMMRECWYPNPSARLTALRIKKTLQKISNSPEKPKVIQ

hBRSK1 = target: T7, hBRSK1 (Homo sapiens, UniProt Q8TDC3); assay: KINOMEscan; format: binding
T7 construct: purchased DiscoverX
T7 sequence (Q8TDC3 whole entry): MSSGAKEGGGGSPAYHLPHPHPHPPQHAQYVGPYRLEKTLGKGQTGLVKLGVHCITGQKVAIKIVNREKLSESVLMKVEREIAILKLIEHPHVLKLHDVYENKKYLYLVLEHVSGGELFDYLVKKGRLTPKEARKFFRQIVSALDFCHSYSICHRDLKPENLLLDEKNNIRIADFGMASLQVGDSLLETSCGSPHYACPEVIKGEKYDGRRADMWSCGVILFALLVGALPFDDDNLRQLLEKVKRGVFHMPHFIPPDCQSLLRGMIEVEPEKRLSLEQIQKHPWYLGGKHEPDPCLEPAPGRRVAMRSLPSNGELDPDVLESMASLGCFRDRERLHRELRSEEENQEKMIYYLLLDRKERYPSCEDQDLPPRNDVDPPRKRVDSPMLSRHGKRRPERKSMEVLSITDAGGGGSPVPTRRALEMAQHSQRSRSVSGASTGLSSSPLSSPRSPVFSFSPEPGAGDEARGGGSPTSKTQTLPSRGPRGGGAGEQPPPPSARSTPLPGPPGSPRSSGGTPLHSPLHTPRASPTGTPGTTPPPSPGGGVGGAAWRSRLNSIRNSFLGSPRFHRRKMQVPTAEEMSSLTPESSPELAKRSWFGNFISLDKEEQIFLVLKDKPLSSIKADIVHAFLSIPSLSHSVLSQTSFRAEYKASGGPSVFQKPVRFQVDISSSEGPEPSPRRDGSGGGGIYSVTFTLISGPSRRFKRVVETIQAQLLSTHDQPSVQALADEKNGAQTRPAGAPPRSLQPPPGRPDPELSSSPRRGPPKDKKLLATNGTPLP

hCAMK2A = target: T8, hCAMK2A (Homo sapiens, UniProt Q9UQM7); assay: KINOMEscan; format: binding
T8 construct: purchased DiscoverX

hCDKL3 = target: T9, hCDKL3 (Homo sapiens, UniProt Q8IVW4); assay: KINOMEscan; format: binding
T9 construct: purchased DiscoverX

hCLK3 = target: T10, hCLK3 (Homo sapiens, UniProt P49761); assay: KINOMEscan; format: binding
T10 construct: purchased DiscoverX
T10 sequence (P49761 whole entry): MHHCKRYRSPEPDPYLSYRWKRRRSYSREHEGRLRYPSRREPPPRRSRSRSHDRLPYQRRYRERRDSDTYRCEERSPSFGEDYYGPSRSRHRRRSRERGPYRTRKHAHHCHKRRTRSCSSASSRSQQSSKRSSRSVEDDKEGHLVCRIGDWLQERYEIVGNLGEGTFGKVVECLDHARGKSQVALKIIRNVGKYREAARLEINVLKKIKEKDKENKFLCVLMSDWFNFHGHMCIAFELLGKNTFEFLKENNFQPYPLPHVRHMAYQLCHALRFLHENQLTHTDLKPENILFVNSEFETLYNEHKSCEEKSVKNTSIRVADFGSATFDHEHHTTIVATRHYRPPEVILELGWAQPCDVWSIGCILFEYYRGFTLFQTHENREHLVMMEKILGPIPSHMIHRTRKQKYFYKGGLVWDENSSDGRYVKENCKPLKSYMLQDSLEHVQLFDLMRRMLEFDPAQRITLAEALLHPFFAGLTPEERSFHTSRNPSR

hERBB2 = target: T11, hERBB2 (Homo sapiens, UniProt P04626); assay: KINOMEscan; format: binding
T11 construct: purchased DiscoverX

hFES = target: T12, hFES (Homo sapiens, UniProt P07332); assay: KINOMEscan; format: binding
T12 construct: purchased DiscoverX

hGCN2(Kin.Dom.2,S808G) = target: T13, hGCN2(Kin.Dom.2,S808G) (Homo sapiens, UniProt Q9P2K8, S808G); assay: KINOMEscan; format: binding
T13 construct: hGCN2(Kin.Dom.2,S808G); purchased DiscoverX

hGSK3B = target: T14, hGSK3B (Homo sapiens, UniProt P49841); assay: KINOMEscan; format: binding
T14 construct: purchased DiscoverX

[1] = target: T15, hJAK1(JH2Dom.-pseudokinase) (Homo sapiens, UniProt P23458); assay: KINOMEscan; format: binding
T15 construct: hJAK1(JH2Dom.-pseudokinase); purchased DiscoverX (KINOMEscan panel)
T15 sequence (P23458 583-855 limits assumed): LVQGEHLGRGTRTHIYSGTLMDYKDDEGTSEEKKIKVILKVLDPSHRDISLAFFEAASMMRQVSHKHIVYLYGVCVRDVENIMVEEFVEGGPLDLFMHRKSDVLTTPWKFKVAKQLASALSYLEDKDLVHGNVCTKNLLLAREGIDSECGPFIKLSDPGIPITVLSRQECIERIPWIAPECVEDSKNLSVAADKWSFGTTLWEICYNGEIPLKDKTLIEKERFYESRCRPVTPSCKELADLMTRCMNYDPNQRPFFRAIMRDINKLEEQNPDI

hKIT(V559D,T670I) = target: T16, hKIT(V559D,T670I) (Homo sapiens, UniProt P10721, T670I/V559D); assay: KINOMEscan; format: binding
T16 construct: purchased DiscoverX (KINOMEscan platform)

hLATS1 = target: T17, hLATS1 (Homo sapiens, UniProt O95835); assay: KINOMEscan; format: binding
T17 construct: purchased DiscoverX (KINOMEscan platform)

hLATS2 = target: T18, hLATS2 (Homo sapiens, UniProt Q9NRM7); assay: KINOMEscan; format: binding
T18 construct: purchased DiscoverX (KINOMEscan platform)
T18 sequence (Q9NRM7 whole entry): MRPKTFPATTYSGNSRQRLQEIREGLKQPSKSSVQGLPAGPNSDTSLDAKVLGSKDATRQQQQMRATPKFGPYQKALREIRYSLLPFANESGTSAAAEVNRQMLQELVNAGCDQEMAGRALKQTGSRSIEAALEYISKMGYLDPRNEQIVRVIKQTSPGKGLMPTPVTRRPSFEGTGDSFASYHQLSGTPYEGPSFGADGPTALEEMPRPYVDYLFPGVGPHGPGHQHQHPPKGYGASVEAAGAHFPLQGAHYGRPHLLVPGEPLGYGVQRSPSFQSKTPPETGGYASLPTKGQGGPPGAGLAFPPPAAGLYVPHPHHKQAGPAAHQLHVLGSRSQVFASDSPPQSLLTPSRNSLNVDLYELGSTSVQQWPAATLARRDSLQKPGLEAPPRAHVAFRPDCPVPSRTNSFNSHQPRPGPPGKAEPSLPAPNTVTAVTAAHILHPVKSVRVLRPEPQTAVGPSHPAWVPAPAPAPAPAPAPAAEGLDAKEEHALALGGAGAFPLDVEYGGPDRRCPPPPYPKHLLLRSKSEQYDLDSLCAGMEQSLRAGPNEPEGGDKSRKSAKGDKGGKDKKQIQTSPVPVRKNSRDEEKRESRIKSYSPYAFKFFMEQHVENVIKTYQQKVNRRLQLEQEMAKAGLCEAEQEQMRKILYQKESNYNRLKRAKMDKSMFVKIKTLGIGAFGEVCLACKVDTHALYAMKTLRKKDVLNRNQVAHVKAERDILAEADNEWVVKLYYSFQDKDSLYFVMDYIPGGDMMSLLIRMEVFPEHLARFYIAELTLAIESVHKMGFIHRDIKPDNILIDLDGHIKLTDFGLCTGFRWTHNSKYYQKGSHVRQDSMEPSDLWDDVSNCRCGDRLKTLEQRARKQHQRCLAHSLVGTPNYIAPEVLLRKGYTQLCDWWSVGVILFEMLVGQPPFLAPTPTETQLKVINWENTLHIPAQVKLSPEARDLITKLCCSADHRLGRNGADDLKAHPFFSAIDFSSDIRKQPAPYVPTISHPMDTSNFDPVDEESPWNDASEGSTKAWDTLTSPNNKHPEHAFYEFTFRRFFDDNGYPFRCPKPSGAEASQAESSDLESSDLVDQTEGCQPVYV

hLKB1 = target: T19, hLKB1 (Homo sapiens, UniProt Q15831); assay: KINOMEscan; format: binding
T19 construct: purchased DiscoverX (KINOMEscan platform)

hMAK = target: T20, hMAK (Homo sapiens, UniProt P20794); assay: KINOMEscan; format: binding
T20 construct: purchased DiscoverX (KINOMEscan platform)

hMAP4K4 = target: T21, hMAP4K4 (Homo sapiens, UniProt O95819); assay: KINOMEscan; format: binding
T21 construct: purchased DiscoverX (KINOMEscan platform)

hMARK3 = target: T22, hMARK3 (Homo sapiens, UniProt P27448); assay: KINOMEscan; format: binding
T22 construct: purchased DiscoverX
T22 sequence (P27448 whole entry): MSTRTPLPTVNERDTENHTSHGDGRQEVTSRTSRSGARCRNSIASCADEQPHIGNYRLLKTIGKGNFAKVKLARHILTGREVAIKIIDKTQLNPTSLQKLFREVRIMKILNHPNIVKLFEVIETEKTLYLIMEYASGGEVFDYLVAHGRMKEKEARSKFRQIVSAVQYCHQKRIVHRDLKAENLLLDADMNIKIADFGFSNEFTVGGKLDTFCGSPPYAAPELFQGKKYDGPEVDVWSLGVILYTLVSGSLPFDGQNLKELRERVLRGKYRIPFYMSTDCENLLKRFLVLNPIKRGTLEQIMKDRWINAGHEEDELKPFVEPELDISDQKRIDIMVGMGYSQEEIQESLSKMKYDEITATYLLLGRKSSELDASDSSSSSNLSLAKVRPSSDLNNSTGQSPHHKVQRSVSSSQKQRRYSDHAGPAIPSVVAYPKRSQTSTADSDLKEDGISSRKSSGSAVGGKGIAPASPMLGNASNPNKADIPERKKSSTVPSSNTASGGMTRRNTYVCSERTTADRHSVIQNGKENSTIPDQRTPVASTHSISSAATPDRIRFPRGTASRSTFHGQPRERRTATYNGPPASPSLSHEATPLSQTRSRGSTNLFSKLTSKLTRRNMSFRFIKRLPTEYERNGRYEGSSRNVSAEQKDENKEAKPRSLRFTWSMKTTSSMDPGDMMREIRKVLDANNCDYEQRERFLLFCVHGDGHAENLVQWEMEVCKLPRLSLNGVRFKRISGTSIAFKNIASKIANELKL

hMKNK1 = target: T23, hMKNK1 (Homo sapiens, UniProt Q9BUB5); assay: KINOMEscan; format: binding
T23 construct: purchased DiscoverX

[2] = target: T24, hRPS6KA4(Kin.Dom.2-C-term) (Homo sapiens, UniProt O75676); assay: KINOMEscan; format: binding
T24 construct: hRPS6KA4(Kin.Dom.2-C-term); purchased DiscoverX (KINOMEscan platform)
T24 sequence (O75676 411-674 limits assumed): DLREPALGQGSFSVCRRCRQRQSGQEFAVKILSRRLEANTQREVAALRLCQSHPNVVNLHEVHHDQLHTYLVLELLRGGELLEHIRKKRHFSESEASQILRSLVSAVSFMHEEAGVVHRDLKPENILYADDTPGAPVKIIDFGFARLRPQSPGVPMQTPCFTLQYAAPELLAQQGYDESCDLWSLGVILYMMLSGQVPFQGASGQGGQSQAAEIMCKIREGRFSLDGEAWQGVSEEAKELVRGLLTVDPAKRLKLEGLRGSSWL

hSGK2 = target: T25, hSGK2 (Homo sapiens, UniProt Q9HBY8); assay: KINOMEscan; format: binding
T25 construct: purchased DiscoverX (KINOMEscan platform)

hSNRK = target: T26, hSNRK (Homo sapiens, UniProt Q9NRH2); assay: KINOMEscan; format: binding
T26 construct: purchased DiscoverX (KINOMEscan platform)

hTRKC = target: T27, hTRKC (Homo sapiens, UniProt Q16288); assay: KINOMEscan; format: binding
T27 construct: purchased DiscoverX

hWNK3 = target: T28, hWNK3 (Homo sapiens, UniProt Q9BYP7); assay: KINOMEscan; format: binding
T28 construct: purchased DiscoverX

hYSK1 = target: T29, hYSK1 (Homo sapiens, UniProt O00506); assay: KINOMEscan; format: binding
T29 construct: purchased DiscoverX

hRXRα = target: T30, hRXRα (Homo sapiens, UniProt P19793); assay: Nuclear hormone receptor assay (Eurofins-CEREP); conditions: read-out: Relative IC50
T30 construct: Eurofins-CEREP

CYP2C9 = target: T31, CYP2C9 (Homo sapiens, UniProt P11712); assay: Cytochrome p450 inhibition (Eurofins-CEREP); format: in vitro ADME
T31 construct: Eurofins-CEREP

hADRβ2 = hADRβ2 (Homo sapiens, UniProt P07550); assay: cAMP Agonist (Eurofins-CEREP); conditions: @ 10 μM
Sequence of hADRβ2 (P07550 whole entry): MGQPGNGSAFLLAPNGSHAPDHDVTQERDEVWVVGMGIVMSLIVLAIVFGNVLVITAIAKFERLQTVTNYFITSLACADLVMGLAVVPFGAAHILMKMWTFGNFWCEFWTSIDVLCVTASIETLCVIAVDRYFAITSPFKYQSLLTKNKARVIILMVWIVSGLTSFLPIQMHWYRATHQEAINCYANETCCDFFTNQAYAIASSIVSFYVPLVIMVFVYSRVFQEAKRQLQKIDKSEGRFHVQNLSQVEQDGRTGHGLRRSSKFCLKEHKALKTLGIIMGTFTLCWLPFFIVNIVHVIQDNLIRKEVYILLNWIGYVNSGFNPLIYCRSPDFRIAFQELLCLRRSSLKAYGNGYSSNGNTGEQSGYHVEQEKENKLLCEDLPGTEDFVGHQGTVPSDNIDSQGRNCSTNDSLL

hD2L = hD2L (Homo sapiens, UniProt P14416); assay: cAMP Potentiation (Eurofins-CEREP); conditions: @ 10 μM
hM2 = target: T32, hM2 (Homo sapiens, UniProt P08172); assay: β-arrestin Antagonist (Eurofins-CEREP); conditions: read-out: % Effect, Inhibition
T32 sequence (P08172 1-466): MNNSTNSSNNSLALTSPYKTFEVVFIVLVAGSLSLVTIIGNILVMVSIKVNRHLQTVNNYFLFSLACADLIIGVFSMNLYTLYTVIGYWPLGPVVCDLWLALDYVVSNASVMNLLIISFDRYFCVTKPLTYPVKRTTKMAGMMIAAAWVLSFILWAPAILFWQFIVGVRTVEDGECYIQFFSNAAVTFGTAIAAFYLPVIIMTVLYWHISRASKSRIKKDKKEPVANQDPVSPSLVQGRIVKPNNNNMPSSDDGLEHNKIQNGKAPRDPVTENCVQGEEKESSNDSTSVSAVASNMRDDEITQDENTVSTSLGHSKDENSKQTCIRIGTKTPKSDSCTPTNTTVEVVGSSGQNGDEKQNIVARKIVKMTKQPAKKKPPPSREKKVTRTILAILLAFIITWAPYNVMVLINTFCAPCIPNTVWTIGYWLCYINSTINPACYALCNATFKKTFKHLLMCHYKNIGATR

Cc1cn(CCN2CCN(c3ccccc3-c3cc(C#N)cc(C(=O)NCCCN4CCCC4)c3)CC2)c2ccccc12 [LLY-507, 3-cyano-5-{2-[4-[2-(3-methylindol-1-yl)ethyl]piperazin-1-yl]-phenyl}-N-[(3-pyrrolidin-1-yl)propyl]benzamide]
IC50 (hABL1(F317I)): > 20 µM
IC50 (hABL1(H396P)): > 20 µM
IC50 (hABL1(pH396P)): > 20 µM
IC50 (hABL2): > 20 µM
IC50 (hACVR1B): > 20 µM
IC50 (hACVRL1): > 20 µM
IC50 (hBRSK1): > 20 µM
IC50 (hCAMK2A): > 20 µM
IC50 (hCDKL3): > 20 µM
IC50 (hCLK3): > 20 µM
IC50 (hERBB2): > 20 µM
IC50 (hFES): > 20 µM
IC50 (hGCN2(Kin.Dom.2,S808G)): > 20 µM
IC50 (hGSK3B): > 20 µM
IC50 [1]: > 20 µM
IC50 (hKIT(V559D,T670I)): > 20 µM
IC50 (hLATS1): > 20 µM
IC50 (hLATS2): > 20 µM
IC50 (hLKB1): > 20 µM
IC50 (hMAK): > 20 µM
IC50 (hMAP4K4): > 20 µM
IC50 (hMARK3): > 20 µM
IC50 (hMKNK1): > 20 µM
IC50 [2]: > 20 µM
IC50 (hSGK2): > 20 µM
IC50 (hSNRK): > 20 µM
IC50 (hTRKC): > 20 µM
IC50 (hWNK3): > 20 µM
IC50 (hYSK1): > 20 µM
IC50 (hRXRα): > 10 µM
% inhibition @ 10 μM (CYP2C9): 34.2%
% Effect, Stimulation (hADRβ2): 0.1%
% Effect, Potentiation (hD2L): -27.5%
inhibition at 10 µM (hM2): 36.3%
